Literature values, collected in patent US10398705B2, “Pharmaceutical tablet formulation for the veterinary medical sector, method of production and use thereof” (BOEHRINGER INGELHEIM VETMEDICA GMBH, priority 2012, dated 2019).

Settings: known property; background description

Row | solubility | Compound
1 | poor and pH-dependent solubility | COc1ccc(-c2nc3ccc(C4=NNC(=O)CC4C)cc3[nH]2)cc1 (racemic) [pimobendan, (RS)-6-[2-(4-methoxyphenyl)-1H-benzimidazol-5-yl]-5-methyl-4,5-dihydropyridazin-3(2H)-one]
2 | well water-soluble | CCOC(=O)[C@H](CCc1ccccc1)N[C@H]1CCc2ccccc2N(CC(=O)O)C1=O (relative stereo) [benazepril, [S—(R*,R*J]-3-[[1-(ethoxycarbonyl)-3-phenylpropyl]amino]-2,3,4,5-tetrahydro-2-oxo-1H-1-benzazepin-1-acetic acid]
